The values below come from patent US8575197B2, “Pyrolinone derivative and pharmaceutical composition comprising the same” (Shionogi & Co., Ltd., priority 2008, dated 2013).

The target in the experiment is human P2X3 receptor (Homo sapiens (Human), UniProt P56373). The experiment in a line: P2X3 receptor inhibition, ATP-evoked Fluo-3 calcium fluorescence (FDSS 3000). It counts as cell-based. The settings on record: C6BU-1 cell transfected with human P2X3 receptor gene; ATP-evoked Fluo-3 fluorescence. Put shortly:
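C6BU-1 cells stably transfected with human P2X3, loaded with 4 μM Fluo-3-AM for 1 h at 37 °C in HEPES buffer pH 7.5 with probenecid. Compound added 5 min before 40 nM ATP solution; fluorescence followed 3 min. IC50 from ratio of peak post-ATP to baseline fluorescence.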

Chain of human P2X3 receptor (P56373 whole entry): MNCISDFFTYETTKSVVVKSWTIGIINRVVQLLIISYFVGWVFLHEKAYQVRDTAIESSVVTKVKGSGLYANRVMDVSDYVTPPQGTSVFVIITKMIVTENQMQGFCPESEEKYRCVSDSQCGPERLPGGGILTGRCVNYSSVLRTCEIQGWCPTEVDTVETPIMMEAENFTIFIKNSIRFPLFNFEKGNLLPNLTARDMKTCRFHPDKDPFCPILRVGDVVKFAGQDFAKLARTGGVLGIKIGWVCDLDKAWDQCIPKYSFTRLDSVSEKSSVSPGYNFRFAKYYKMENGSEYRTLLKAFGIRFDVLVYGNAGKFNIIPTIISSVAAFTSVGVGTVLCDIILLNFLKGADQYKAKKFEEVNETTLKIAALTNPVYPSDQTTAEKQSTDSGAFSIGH

In the case of `CC(C)CC(=O)C1=C(O)C(=O)N(c2ccc(-c3ccon3)cc2)C1c1ccccc1OCCO` (stereo not shown) [Compound I-323], the IC50 amounted to 0.31 µM.
With `CC(C)C(=O)C1=C(O)C(=O)N(c2ccc(-c3ccoc3)cc2)C1c1cccnc1OCCCO` (stereo not shown) [Compound I-566] the figure was 0.061 µM; with `COC(=O)COc1ccccc1C1c2c(C(C)(C)C)n[nH]c2C(=O)N1c1ccc(-c2cccs2)cc1` (stereo not shown) [II-021], 0.009 µM.
Turning to `COc1ccc(C(=O)C2=C(O)C(=O)N(c3ccc(-c4nc(C)no4)cc3)C2c2ccccc2OC)cc1` (stereo not shown) [Compound I-032], the IC50 is 0.16 µM.
With `CC(C)(C)c1n[nH]c2c1C(c1ccccc1OCC(=O)O)N(c1ccc(-c3cccs3)cc1)C2=O` (stereo not shown) [II-022] the figure was 0.004 µM; with `COc1ccc(C(=O)C2=C(O)C(=O)N(c3ccc(-c4nccs4)cc3)C2c2ccccc2OC)cc1` (stereo not shown) [Compound I-029], 0.16 µM.
With `CC(C)c1n[nH]c2c1C(c1ccccc1OCCS(C)(=O)=O)N(c1ccc(-c3ccsc3)cc1)C2=O` (stereo not shown) [II-245] the figure was 0.006 µM; with `COCCOc1ncccc1C1c2c(C(C)(C)C)n[nH]c2C(=O)N1c1ccc(-c2ccco2)cc1` (stereo not shown) [II-037], 0.008 µM; with `COc1ccccc1C1C(C(=O)CC(C)C)=C(O)C(=O)N1c1ccc(-c2cc(C)no2)cc1` (stereo not shown) [Compound I-339], 0.892 µM.
As to `COc1ccccc1C1c2c(C(C)(C)C)n[nH]c2C(=O)N1c1ccc(SC(F)(F)F)cc1` (stereo not shown) [II-004], the IC50 is 0.378 µM.
With `CC(C)c1n[nH]c2c1C(c1ccccc1N)N(c1ccc(-c3ccsc3)cc1)C2=O` (stereo not shown) [II-081] the figure was 0.189 µM.
For the compound `COc1ccccc1C1C(C(=O)CC(C)(C)C(=O)O)=C(O)C(=O)N1c1ccc(-c2ccsc2)cc1` (stereo not shown) [Compound I-557], the IC50 came to 0.444 µM.
Regarding `COc1ccccc1C1c2c(C(C)(C)C)n[nH]c2C(=O)N1c1ccc(-c2ccoc2)cn1` (stereo not shown) [II-247], the IC50 was 0.033 µM.
Take `COc1ccccc1C1c2c(C(C)(C)CO)n[nH]c2C(=O)N1c1ccc(-c2cccs2)cn1` (stereo not shown) [II-264]: the IC50 worked out at 0.011 µM.
As for `CN(C)CCOc1ccccc1C1C(C(=O)C(C)(C)C)=C(O)C(=O)N1c1ccc(-c2ccon2)cc1` (stereo not shown) [Compound I-137], the half-maximal inhibitory concentration (IC50) worked out at 0.615 µM.
For `CC(C)C(=O)C1=C(O)C(=O)N(c2ccc(-c3ccon3)cc2)C1c1cccnc1OCCO` (stereo not shown) [Compound I-179] the value was 0.659 µM; for `COCc1ccccc1C1C(C(=O)C(C)C)=C(O)C(=O)N1c1ccc(I)cc1` (stereo not shown) [Compound I-281], 0.637 µM.
Consider `Cc1ccc(-c2ccc(N3C(=O)C(O)=C(C(=O)C(C)C)C3c3ccccc3CC(=O)N(C)C)cc2)o1` (stereo not shown) [Compound I-493], for which the IC50 was determined as 0.105 µM.
For `CNC(=O)COc1ccccc1C1C(C(=O)C(C)(C)C)=C(O)C(=O)N1c1ccc(-c2ccon2)cc1` (stereo not shown) [Compound I-146] the value was 0.727 µM; for `COCCOc1ccccc1C1c2c(C(C)(C)CO)n[nH]c2C(=O)N1c1ccc(-c2ccsc2)cc1` (stereo not shown) [II-130], 0.004 µM; for `COc1ccc(-c2n[nH]c3c2C(c2ccccc2OC)N(CCCc2ccco2)C3=O)cc1` (stereo not shown) [II-231], 0.344 µM.
With `Cc1nc(-c2ccc(N3C(=O)C(O)=C(C(=O)c4cc[nH]c4)C3C3CCCCC3)cc2)no1` (stereo not shown) [Compound I-555] the figure was 0.579 µM; with `COCc1ccccc1C1C(C(=O)CC(C)C)=C(O)C(=O)N1c1ccc(C2=NCCS2)cc1` (stereo not shown) [Compound I-414], 0.268 µM.
For `COCCCOc1ccccc1C1C(C(=O)CC(C)C)=C(O)C(=O)N1c1ccc(-c2ccsc2)cc1` (stereo not shown) [Compound I-490], the IC50 worked out at 0.017 µM.
For `COCCOc1ccccc1[C@@H]1C(C(=O)C(C)C)=C(O)C(=O)N1c1ccc(-c2ccsc2)cc1` [Compound I-222] the value was 0.006 µM; for `COc1ccccc1C1c2c(C(C)C)n[nH]c2C(=O)N1c1ccc(-c2ccsc2)c(N)c1` (stereo not shown) [II-240], 0.116 µM; for `COc1ccccc1C1c2c(C(C)(C)C)n[nH]c2C(=O)N1c1ccc(-c2ccsc2)cc1` (stereo not shown) [II-204], 0.017 µM.
`Cc1nc(-c2ccc(N3C(=O)C(O)=C(C(=O)C(C)C)C3c3ccccc3CCC(=O)NC(C)C)cc2)no1` (stereo not shown) [Compound I-594]: the IC50 worked out at 0.715 µM.
As for `CC(C)C(=O)C1=C(O)C(=O)N(c2ccc(-c3ccsc3)cc2)C1c1cccnc1OCC(=O)O` (stereo not shown) [Compound I-195], the IC50 came to 0.235 µM.
In the case of `CCOc1ccccc1C1c2c(C(C)(C)C)n[nH]c2C(=O)N1c1ccc(-c2ccon2)cc1` (stereo not shown) [II-101], the half-inhibitory concentration (IC50) turned out to be 0.027 µM.
With `COc1ccc(CC(=O)C2=C(O)C(=O)N(c3ccc(-c4noc(C)n4)cc3)C2C2CCCCC2)cc1` (stereo not shown) [Compound I-331] the figure was 0.722 µM.
For `CC(C)(C)c1n[nH]c2c1C(c1ccccc1OC(F)(F)F)N(c1ccc(-c3ccon3)cc1)C2=O` (stereo not shown) [II-061] the value was 0.166 µM; for `COC(=O)C(C)(C)CC(=O)C1=C(O)C(=O)N(c2ccc(-c3ccsc3)cc2)C1c1ccccc1OC` (stereo not shown) [Compound I-556], 0.032 µM; for `COCCOc1ccccc1C1C(C(=O)CC(C)C)=C(O)C(=O)N1c1ccc(-c2nc(C)no2)cc1` (stereo not shown) [Compound I-273], 0.491 µM.
In the case of `COCc1ccccc1C1C(C(=O)CC(C)C)=C(O)C(=O)N1c1ccc(-c2ccc(C)s2)cc1` (stereo not shown) [Compound I-303], the IC50 turned out to be 0.031 µM.
With `COc1ncccc1C1C(C(=O)C(C)(C)C)=C(O)C(=O)N1c1ccc(-c2cccs2)nc1` (stereo not shown) [Compound I-122] the figure was 0.342 µM; with `CC(C)(C)c1n[nH]c2c1C(c1ccccc1OCCNS(C)(=O)=O)N(c1ccc(-c3ccsc3)cc1)C2=O` (stereo not shown) [II-171], 0.007 µM; with `Cc1ccc(-c2ccc(N3C(=O)C(O)=C(C(=O)C(C)C)C3c3ccccc3OC(C)C)cc2)o1` (stereo not shown) [Compound I-396], 0.007 µM.
As to `COc1ccc(C(=O)C2=C(O)C(=O)N(c3ccc(-c4cccnc4)cc3)C2c2ccccc2OC)cc1` (stereo not shown) [Compound I-034], the IC50 amounted to 0.7 µM.
With `COCc1ccccc1C1C(C(=O)C(C)C)=C(O)C(=O)N1c1ccc(-c2cccs2)cc1` (stereo not shown) [Compound I-215] the figure was 0.013 µM; with `COCCOc1ccccc1C1C(C(=O)CC(C)C)=C(O)C(=O)N1c1ccc(SC)cc1` (stereo not shown) [Compound I-435], 0.082 µM.
For `COc1cc(F)ccc1C1C(C(=O)C(C)C)=C(O)C(=O)N1c1ccc(-c2ccsc2)cc1` (stereo not shown) [Compound I-325], the IC50 was found to be 0.018 µM.
As to `COCCOc1ccccc1C1c2c(C(C)(C)C)n[nH]c2C(=O)N1c1ccc(-c2nc(C)no2)cc1` (stereo not shown) [II-024], the IC50 came out at 0.062 µM.
`Cc1ccc(-c2ccc(N3C(=O)C(O)=C(C(=O)C(C)C)C3c3ccccc3C(=O)N(C)CCO)cc2)o1` (stereo not shown) [Compound I-585]: the IC50 worked out at 0.157 µM.
With `COCCOc1ncccc1C1C(C(=O)C(C)(C)C)=C(O)C(=O)N1c1ccc(-c2ccoc2)cc1` (stereo not shown) [Compound I-164] the figure was 0.074 µM; with `COc1ccccc1C1c2c(C(C)(C)CO)n[nH]c2C(=O)N1c1ccc(-c2ccco2)cn1` (stereo not shown) [II-265], 0.031 µM; with `COCCOc1cc(F)ccc1C1C(C(=O)CC(C)C)=C(O)C(=O)N1c1ccc(-c2ccsc2)cc1` (stereo not shown) [Compound I-364], 0.009 µM.
With `COc1ncccc1C1c2c(C(C)(C)C)n[nH]c2C(=O)N1c1ccc(-c2nc(C)no2)cc1` (stereo not shown) [II-195], the IC50 is 0.944 µM.
Turning to `CCOC(=O)c1ccc(N2C(=O)c3[nH]nc(C(C)(C)C)c3C2c2ccccc2OC)cc1` (stereo not shown) [II-057], the IC50 worked out at 0.017 µM.
